One assay deals with T1, BTK (Homo sapiens, UniProt Q06187).
T1 construct: purchased Promega
In words: BTK inhibitory activity, ADP-Glo + BTK Kinase enzyme system kit (Promega). The format is biochemical. Conditions: BTK enzyme 1 ng/uL, ATP 10 uM, 15 min preincubation, luminescence, duplicate. In short, it runs like this:
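BTK activity measured by ADP-Glo luminescence: kinase reaction with substrate and 10 uM ATP (final) for 1 h at 30°C, then ADP-Glo reagent 40 min and detection 30 min at 30°C. Run in duplicate; IC50 calculated relative to no-compound and positive controls.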
A general note: ADP-Glo turns the ADP formed in a reaction into a luminescent signal.

For the next assay, the target named is T2, ITK (Homo sapiens, UniProt Q08881).
T2 construct: purchased Promega
T2 sequence (Q08881 1-620): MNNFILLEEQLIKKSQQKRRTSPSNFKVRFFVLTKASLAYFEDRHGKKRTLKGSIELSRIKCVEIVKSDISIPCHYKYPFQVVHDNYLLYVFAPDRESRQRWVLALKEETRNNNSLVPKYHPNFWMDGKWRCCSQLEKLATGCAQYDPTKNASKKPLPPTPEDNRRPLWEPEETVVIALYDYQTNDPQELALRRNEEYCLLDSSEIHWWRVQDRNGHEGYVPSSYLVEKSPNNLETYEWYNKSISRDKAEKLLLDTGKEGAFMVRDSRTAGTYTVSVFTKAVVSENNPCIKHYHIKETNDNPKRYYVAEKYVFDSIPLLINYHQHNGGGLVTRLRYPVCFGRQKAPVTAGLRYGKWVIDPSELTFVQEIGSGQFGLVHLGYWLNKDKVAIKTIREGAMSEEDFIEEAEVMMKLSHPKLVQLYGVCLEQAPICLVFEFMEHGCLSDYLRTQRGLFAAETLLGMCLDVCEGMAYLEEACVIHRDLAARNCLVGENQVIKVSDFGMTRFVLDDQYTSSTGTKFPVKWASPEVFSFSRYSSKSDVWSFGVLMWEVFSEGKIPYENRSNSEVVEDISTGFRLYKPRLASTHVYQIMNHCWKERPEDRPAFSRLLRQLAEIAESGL
In words: ITK inhibitory activity, ADP-Glo + ITK Kinase enzyme system kit (Promega). The format is biochemical. As to conditions: ITK enzyme 0.4 ng/uL, ATP 25 uM, 15 min preincubation, luminescence, duplicate. In short, it runs like this:
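ITK activity by ADP-Glo luminescence: substrate and ATP (final 25 uM) reacted 1 h at 30° C, then ADP-Glo reagent 40 min and detection reagent 30 min at 30° C. IC50 from duplicates, normalised to no-compound and enzyme-free controls.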

The structures appear in SMILES notation. Bounds are passed on as bounds.

For orientation: IC50 means the midpoint of a concentration-inhibition curve.

T1 sequence (Q06187 whole entry): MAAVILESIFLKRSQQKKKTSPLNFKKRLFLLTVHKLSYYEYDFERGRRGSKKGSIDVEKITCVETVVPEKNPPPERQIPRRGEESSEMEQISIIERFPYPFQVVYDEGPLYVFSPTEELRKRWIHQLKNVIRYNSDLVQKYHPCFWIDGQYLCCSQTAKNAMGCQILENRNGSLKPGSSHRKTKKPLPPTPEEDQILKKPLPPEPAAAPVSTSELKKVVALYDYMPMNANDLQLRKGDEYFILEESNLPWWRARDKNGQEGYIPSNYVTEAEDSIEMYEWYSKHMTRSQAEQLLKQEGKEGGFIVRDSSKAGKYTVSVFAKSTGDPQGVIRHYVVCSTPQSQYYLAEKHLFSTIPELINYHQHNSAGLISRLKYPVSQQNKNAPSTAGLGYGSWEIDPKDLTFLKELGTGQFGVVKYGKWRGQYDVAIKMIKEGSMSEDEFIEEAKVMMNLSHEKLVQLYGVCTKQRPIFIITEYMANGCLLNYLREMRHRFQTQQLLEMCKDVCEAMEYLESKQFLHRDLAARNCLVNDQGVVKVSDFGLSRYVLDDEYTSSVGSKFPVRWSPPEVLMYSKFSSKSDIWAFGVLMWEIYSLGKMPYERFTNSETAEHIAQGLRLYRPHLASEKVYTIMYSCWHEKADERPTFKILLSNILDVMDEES

As for `C=CC(=O)N1CCC[C@@H](n2nc(-c3ccc(C(=O)Nc4ccccn4)cc3)c3c(N)ncc(I)c32)C1` [Example 21, (R)-4-(1-(1-acryloylpiperidin-3-yl)-4-amino-7-iodo-1H-pyrazolo[4,3-c]pyridin-3-yl)-N-(pyridin-2-yl)benzamide], the IC50 at BTK was 10.7 nM; at ITK, > 1000 nM.
Turning to `C=CC(=O)N1CCC[C@@H](n2nc(-c3ccc(C(=O)Nc4ccccn4)cc3F)c3c(N)ncc(C#N)c32)C1` [Example 53, (R)-4-(1-(1-acryloylpiperidin-3-yl)-4-amino-7-cyano-1H-pyrazolo[4,3-c]pyridin-3-yl)-3-fluoro-N-(pyridin-2-yl)benzamide], the IC50 at BTK was determined as 0.5 nM; on ITK, 4.3 nM.
`C=CC(=O)N1CCC[C@@H](n2nc(-c3ccc(C(=O)Nc4ccccn4)cc3)c3c(N)ncc(Nc4ccccc4)c32)C1` [Example 43, (R)-4-(1-(1-acryloylpiperidin-3-yl)-4-amino-7-(phenylamino)-1H-pyrazolo[4,3-c]pyridin-3-yl)-N-(pyridin-2-yl)benzamide]: the IC50 at BTK was 2.5 nM; on ITK, 146 nM.
For `C=CC(=O)N1CCC[C@@H](n2nc(Nc3cnn(C4CC4)c3)c3c(N)nccc32)C1` [Example 61, (R)-1-(3-(4-amino-3-(1-cyclopropyl-1H-pyrazol-4-ylamino)-1H-pyrazolo[4,3-c]pyridin-1-yl)piperidin-1-yl)prop-2-en-1-one], the IC50 at BTK was 187 nM; on ITK, > 1000 nM.
For the compound `C=CC(=O)N1CC(n2nc(-c3ccc(C(=O)Nc4ccccn4)cc3Cl)c3c(N)ncc(Cl)c32)C1` [Example 64, 4-(1-(1-acryloylazetidin-3-yl)-4-amino-7-chloro-1H-pyrazolo[4,3-c]pyridin-3-yl)-3-chloro-N-(pyridin-2-yl)benzamide], the IC50 on BTK is 1.1 nM; at ITK, 22.5 nM.
As to `C=CC(=O)N1CCC[C@@H](n2nc(-c3ccc(C(=O)Nc4ccccc4)cc3)c3c(N)ncc(-c4cnn(CCN(C)C)c4)c32)C1` [Example 36, (R)-4-(1-(1-acryloylpiperidin-3-yl)-4-amino-7-(1-(2-(dimethylamino)ethyl)-1H-pyrazol-4-yl)-1H-pyrazolo[4,3-c]pyridin-3-yl)-N-phenylbenzamide], the figures for the IC50 on BTK and on ITK were 1.5 nM and 89 nM, respectively.
In the case of `C=CC(=O)N1CCC[C@@H](n2nc(-c3ccc(C(=O)Nc4ccccc4)cc3)c3c(N)ncc(-c4cnn(C)c4)c32)C1` [Example 26, (R)-4-(1-(1-acryloylpiperidin-3-yl)-4-amino-7-(1-methyl-1H-pyrazol-4-yl)-1H-pyrazolo[4,3-c]pyridin-3-yl)-N-phenyl benzamide], the IC50 on BTK is 2.7 nM; on ITK, 59.3 nM.
`C=C(C)C(=O)N1CCC[C@@H](n2nc(-c3ccc(C(=O)Nc4ccccn4)cc3F)c3c(N)ncc(Cl)c32)C1` [Example 55, (R)-4-(4-amino-7-chloro-1-(1-methacryloylpiperidin-3-yl)-1H-pyrazolo[4,3-c]pyridin-3-yl)-3-fluoro-N-(pyridin-2-yl)benzamide]: the IC50 on BTK was determined as 6.4 nM; at ITK it was 124 nM.
For the compound `C=CC(=O)N1CCCC(n2nc(-c3ccc(Oc4ccccc4)cc3)c3c(N)ncc(-c4cnn(C)c4)c32)C1` (stereo not drawn) [Example 7, 1-(3-(4-amino-7-(1-methyl-1H-pyrazol-4-yl)-3-(4-phenoxyphenyl)-1H-pyrazolo[4,3-c]pyridin-1-yl)piperidin-1-yl)prop-2-en-1-one], the results for the IC50 at BTK and at ITK were 3 nM and 36.4 nM, respectively.
For the compound `C=CC(=O)N1CCC[C@@H](n2nc(-c3ccc(C(=O)Nc4ccccc4)cc3)c3c(N)ncc(-c4cnn(C5CCN(C)CC5)c4)c32)C1` [Example 35, (R)-4-(1-(1-acryloylpiperidin-3-yl)-4-amino-7-(1-(1-methylpiperidin-4-yl)-1H-pyrazol-4-yl)-1H-pyrazolo[4,3-c]pyridin-3-yl)-N-phenylbenzamide], the IC50 at BTK was 1.9 nM; on ITK, 61 nM.
Take `C=CC(=O)N1CCC[C@@H](n2nc(-c3ccc(C(=O)Nc4ccccc4)cc3)c3c(N)ncc(C)c32)C1` [Example 44, (R)-4-(1-(1-acryloylpiperidin-3-yl)-4-amino-7-methyl-1H-pyrazolo[4,3-c]pyridin-3-yl)-N-phenyl benzamide]: the values for the IC50 on BTK and on ITK were > 1.56 nM and 105 nM, respectively.
For the compound `C=CC(=O)N1CCC[C@@H](n2nc(C(=O)Nc3nc4cc(Cl)ccc4o3)c3c(N)ncc(Cl)c32)C1` [Example 74, (R)-1-(1-acryloylpiperidin-3-yl)-4-amino-7-chloro-N-(5-chlorobenzo[d]oxazol-2-yl)-1H-pyrazolo[4,3-c]pyridine-3-carboxamide], the results for the IC50 at BTK and on ITK were 3.3 nM and 6.4 nM, respectively.
The corresponding values for `C#CC(=O)N1CCC(n2nc(-c3ccc(Oc4ccccc4)cc3)c3c(N)nccc32)CC1` [Example 4, 1-(4-(4-amino-3-(4-phenoxyphenyl)-1H-pyrazolo[4,3-c]pyridin-1-yl)piperidin-1-yl)prop-2-yn-1-one] are 5.5 nM and 277 nM.
Turning to `C=CC(=O)N1CCC[C@H](n2nc(-c3ccc(C(=O)Nc4ccccn4)cc3)c3c(N)nccc32)C1` [Example 39, (S)-4-(1-(1-acryloylpiperidin-3-yl)-4-amino-1H-pyrazolo[4,3-c]pyridin-3-yl)-N-(pyridin-2-yl)benzamide], the half-maximal inhibitory concentration (IC50) is 3.5 nM on BTK and > 1000 nM at ITK.
As to `C=CC(=O)N1CCCC(n2nc(-c3ccc(Oc4ccccc4)cc3)c3c(N)ncc(-c4ccccc4)c32)C1` (stereo not drawn) [Example 11, 1-(3-(4-amino-3-(4-phenoxyphenyl)-7-phenyl-1H-pyrazolo[4,3-c]pyridin-1-yl)piperidin-1-yl)prop-2-en-1-one], the IC50 at BTK was found to be 11.4 nM; on ITK, 224 nM.
For `C=CC(=O)N1CCC[C@@H](n2nc(C(=O)Nc3nc4cc(Cl)ccc4o3)c3c(N)nccc32)C1` [Example 71, (R)-1-(1-acryloylpiperidin-3-yl)-4-amino-N-(5-chlorobenzo[d]oxazol-2-yl)-1H-pyrazolo[4,3-c]pyridine-3-carboxamide], in that order: 3.4 nM and 4.1 nM.
As for `C=CC(=O)N1CCCC(n2nc(-c3ccc(Oc4ccccc4)cc3)c3c(N)ncc(Br)c32)C1` (stereo not drawn) [Example 10, 1-(3-(4-amino-7-bromo-3-(4-phenoxyphenyl)-1H-pyrazolo[4,3-c]pyridin-1-yl)piperidin-1-yl)prop-2-en-1-one], the figures for the IC50 on BTK and at ITK were 2.1 nM and 10.8 nM, respectively.
The corresponding values for `C=CC(=O)N1CCC[C@@H](n2nc(-c3ccc(C(=O)Nc4ccccn4)cc3Cl)c3c(N)ncc(-c4cn[nH]c4)c32)C1` [Example 70, (R)-4-(1-(1-acryloylpiperidin-3-yl)-4-amino-7-(1H-pyrazol-4-yl)-1H-pyrazolo[4,3-c]pyridin-3-yl)-3-chloro-N-(pyridin-2-yl)benzamide] are 2 nM and 5.2 nM.

For the origin of these results see patent publication US11180496B2 (Daewoong Pharmaceutical Co., Ltd., priority 2017, dated 2021).
